For one test, the target named is human EGFR kinase domain (Homo sapiens (Human), UniProt P00533). Description: Human EGFR LanthaScreen Selectivity Assay (TR-FRET). The test is classed as biochemical. To be noted: 20 μM ATP. (In general: Time-resolved FRET reads energy transfer from a long-lived donor to a nearby acceptor.)
Test [1] concerns the target human full-length BTK Kinase (Homo sapiens (Human), UniProt Q06187). The experiment in a line: Human BTK LanthaScreen Assay (TR-FRET). The class given is biochemical. The settings on record: 50 μM ATP, FAM-Srctide peptide substrate, read-out: BTK Inhibition IC50. The text has this: Human BTK LanthaScreen Assay
The next test deals with human whole blood. The experiment in a line: Human Whole Blood Histamine Assay (anti-IgE induced histamine release). The test is classed as cell-based. The settings on record: heparinized human whole blood, anti-human-IgE 2 μg/ml, histamine release by ELISA; read-out: HWB IC50. Here is the method:
Human Whole Blood Histamine Assay
Heparinized human whole blood (200 μl) was plated in 96-well V-bottom assay plates (VWR). Compounds diluted in 100% DMSO (1 μl) were added and incubated at 37° C. for 120 minutes. Anti-human-IgE antibody (KPL) was added to a final concentration of 2 μg/ml and assay plates incubated for 30 minutes at 37° C. Plates were spun at 2000 rpm for 8 minutes and the analyzed for histamine release by ELISA kits (Beckman Coulter).
Inhibition curves and IC50 values are determined using Excel-fit.
For orientation: In an ELISA, binding on a coated surface is turned into a signal by an enzyme label.

Another test has as its system Human B cells. Description: Human Primary B Cell Proliferation Assay (3H-thymidine incorporation, anti-human IgM stimulated). The class given is cell-based. To be noted: B-cell, purified human B cells, 50 μg/mL anti-human IgM F(ab')2, 72 hours. Here is the method: Human Primary B Cell Proliferation Assay
Human B cells were purified from buffy coats using the human B cell RosetteSep kit per manufacturer's instructions. Purified cells were resuspended in RPMI-10% HIFCS, 2 mM L-glutamine, 100 U/mL penicillin, 100 μg/ml streptomycin, incubated with compounds for 1 hour at 37° C. and then stimulated with 50 μg/mL anti-human IgM F(ab′)2 for 72 hours. ^3H-thymidine was included in the culture media for the final 8-16 hours. Cells were harvested and ^3H-thymidine incorporation was measured.
Human B cell Proliferation Assay
On the technique in general: Dividing cells build labelled thymidine or BrdU into new DNA.

From patent publication US10266513B2 (Pfizer Inc., priority 2012, dated 2019) come the findings set out here.

Molecules are shown by their SMILES.

Chain of human EGFR kinase domain (P00533 712-979): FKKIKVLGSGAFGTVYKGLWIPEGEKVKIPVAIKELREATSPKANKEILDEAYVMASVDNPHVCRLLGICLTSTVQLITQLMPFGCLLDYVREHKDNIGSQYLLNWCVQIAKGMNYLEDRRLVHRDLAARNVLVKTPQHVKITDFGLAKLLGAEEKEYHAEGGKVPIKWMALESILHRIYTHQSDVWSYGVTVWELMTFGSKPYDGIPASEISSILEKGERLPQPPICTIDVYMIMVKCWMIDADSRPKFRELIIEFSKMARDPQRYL
Chain of human full-length BTK Kinase (Q06187 whole entry): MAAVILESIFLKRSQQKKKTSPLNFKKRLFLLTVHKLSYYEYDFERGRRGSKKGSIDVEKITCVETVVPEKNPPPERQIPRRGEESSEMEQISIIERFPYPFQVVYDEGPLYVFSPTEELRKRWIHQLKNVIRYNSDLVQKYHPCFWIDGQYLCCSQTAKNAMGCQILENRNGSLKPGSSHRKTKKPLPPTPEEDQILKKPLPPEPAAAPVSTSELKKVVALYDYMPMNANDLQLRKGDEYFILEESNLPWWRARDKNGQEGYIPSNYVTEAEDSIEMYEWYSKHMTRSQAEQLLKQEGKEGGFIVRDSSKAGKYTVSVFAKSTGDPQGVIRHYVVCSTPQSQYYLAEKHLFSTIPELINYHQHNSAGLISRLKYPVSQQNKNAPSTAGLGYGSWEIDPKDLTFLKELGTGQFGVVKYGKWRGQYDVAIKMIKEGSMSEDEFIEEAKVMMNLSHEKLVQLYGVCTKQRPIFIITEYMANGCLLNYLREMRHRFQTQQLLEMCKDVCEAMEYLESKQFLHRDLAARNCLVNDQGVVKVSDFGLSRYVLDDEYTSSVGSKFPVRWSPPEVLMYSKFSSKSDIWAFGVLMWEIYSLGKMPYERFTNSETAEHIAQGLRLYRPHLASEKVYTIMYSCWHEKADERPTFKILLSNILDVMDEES
Method for human EGFR kinase domain: The kinase reaction mixtures were incubated at room temperature for 60 minutes before stopping the kinase activity by the addition of 15 mM EDTA. The extent of peptide phosphorylation by EGFR was detected using a Terbium-conjugated anti-phospho-Tyrosine antibody (Tb-PT66 antibody, invitrogen # PV3557).

A word on the IC50: it is the concentration at which inhibition is half-maximal. Consider `NC(=O)c1c(-c2ccc(Oc3ccc(F)cc3F)cc2)nn([C@@H]2CCCN(C(=O)/C=C/CO)C2)c1N` [Example 151, 5-am no-3-[4-(2,4-difluorophenoxy)phenyl]-1-{(3R)-1-[(2E)-4-hydroxybut-2-enoyl]-piperidin-3-yl}-1H-pyrazole-4-carboxamide], for which the IC50 was found to be 12100 nM at human EGFR kinase domain, 2.3 nM in test [1], 258 nM with human whole blood and 0.22 nM with Human B cells.

With `C=CC(=O)N1CCC[C@@H](n2nc(-c3ccc(Oc4ccc(Cl)cn4)cc3)c(C(N)=O)c2N)C1` [Example 157, 1-[(3R)-1-acryloylpiperidin-3-yl]-5-amino-3-{4-[(5-chloropyridin-2-yl)oxy]phenyl}-1H-pyrazole-4-carboxamide], the IC50 against human EGFR kinase domain worked out at 29.7 nM; in test [1] it was 1.3 nM; with human whole blood, 98.7 nM; with Human B cells, 24.2 nM.

As to `C=CC(=O)N1CCC[C@@H](n2nc(-c3ccc(Oc4cccc(C(F)(F)F)n4)cc3)c(C(N)=O)c2N)C1` [Example 161, 1-[(3R)-1-acryloylpiperidin-3-yl]-5-amino-3-(4-{[6-(trifluoromethyl)pyridin-2-yl]oxy}phenyl)-1H-pyrazole-4-carboxamide], the IC50 on human EGFR kinase domain worked out at 89.8 nM; in test [1], 1.2 nM; with human whole blood, 52.7 nM; with Human B cells, 3 nM.

With `NC(=O)c1c(-c2ccc(Oc3cccc(C(F)(F)F)n3)cc2)nn([C@@H]2CCCN(C(=O)/C=C/CO)C2)c1N` [Example 162, 5-amino-1-{(3R)-1-[(2E)-4-hydroxybut-2-enoyl]piperidin-3-yl}-3-(4-{[6-(trifluoromethyl)pyridin-2-yl]oxy}phenyl)-1H-pyrazole-4-carboxamide], the IC50 against human EGFR kinase domain was 14100 nM; in test [1] it was 9.8 nM; with human whole blood it was 343 nM; in the test with Human B cells, 103 nM.
